The subject of data set [1] is primary mouse hepatocytes. As to the kind of experiment: MIEL-Rejuvenation in primary old hepatocytes. The note with it: for outcome in high throughput screening using primary mouse hepatocytes (miBioAge): figure legends FIG. 63-65; for shift of epigenetic signature of old cells towards that of young cells: old hepatocytes. Format: cell-based, mice. The source says: To meet this challenge, techniques described herein were employed to analyze the effects of various drugs on the analysis of epigenome topography at the single cell level. Because of large numbers of cells required for drug screening, mice were used as a source of (C57BLACK/6) of liver hepatocytes (˜98% pure in the preparations) for probing whether epigenetic signature of aging is retained after short-term cultures of hepatocytes. […] The ability of hepatocytes to maintain age-related epigenetic or multiparametric signatures in cell culture conditions provides the foundation for high throughput screening.
These high content screenings using MIEL pipeline were conducted to adapt these assay conditions. Briefly, on day 0, 10,000 primary mouse hepatocytes per well were seeded in 384 well plates. Hepatocytes were isolated via a 2-step perfusion method yielding ˜98% pure population of primary hepatocytes. At 24 hrs after seeding, compounds were added in DMSO. Primary mouse hepatocytes were determined to tolerate DMSO concentrations of at least 0.1% (v/v) without adverse effects on cell growth or viability over 5 days (compared to no DMSO control). Using the Echo acoustic compound dispensing system and 10 mM stock concentration library plates, each of the drugs at concentrations up to 10 μM was sufficiently delivered. At 4 days after seeding, cells were fixed and immunolabeled with antibody to H3K9me3, H3K27me3, and H4K20me3 (initially in separate wells) to determine the efficiency of each individual mark and potential for synergy.

Data set [2] deals with GBM2 cells. Kind of data set: Immunofluorescence of core TPC transcription factors and Ki67 in drug-treated cells. The format is cell-based, human. The note with it: for Sox2 expression: GBM2, 3 days treatment, Digitoxigenin 0.3 μM; for expression of the core transcription factors: GBM2, compared with serum and Bmp4; for Sall2 and Brn2 expression: GBM2, immunofluorescence. As to the method:
Cell staining: Cells were rinsed with PBS and fixed in 4% paraformaldehyde in PBS for 10 min at room temperature. After blocking with PBSAT (2% BSA and 0.5% Triton X-100 in PBS) for 1 h at room temperature, the cells were incubated overnight at 4° C. with primary antibodies diluted in PBSAT. The primary antibodies are listed in Table 2, and the appropriate fluorochrome-conjugated secondary antibodies were used at 1:500 dilution. Nuclear co-staining was performed by incubating cells with Hoechst-33342 nuclear dye.
Microscopy and image analysis: Unless stated otherwise, for MIEL analysis cells were imaged on an Opera QEHS high-content screening system (PerkinElmer) using ×40 water immersion objectives. Images collected on the Opera were analyzed using Acapella 2.6 (PerkinElmer). At least 40 fields per well were acquired and at least 2 wells per population were used. Features of nuclear morphology, fluorescence intensity inter-channel co-localization, and texture features (Image moments, Haralick, Threshold Adjacency Statistics) were calculated using custom algorithms (scripts available from www.andrewslab.ca). A full list of the features used is available from the authors. Values for each cell were generated and exported to MATLAB for further analysis. For Sall2, Olig2, Brn2, Sox2, Oct4 and GFAP immunostaining, images were captured on an IC200-KIC (Vala Sciences) using a ×20 objective. Between 3 and 8 fields per well were acquired and analyzed using Acapella 2.6 (PerkinElmer). For all nuclear markers, average intensities in nucleus or fold change in average intensity compared to untreated cells are shown. Unless stated otherwise, at least 3 wells and a minimum of 300 cells for each condition were compared using unpaired two-tailed t-test was.
Microscopy and image analysis: For MIEL analysis, cells were imaged on either an Opera QEHS high-content screening system (PerkinElmer) using ×40 water immersion objectives or an IC200-KIC (Vala Sciences) using a ×20 objective. Images collected were analyzed using Acapella 2.6 (PerkinElmer). At least 40 fields/well for Opera and 5 fields/well for IC200 were acquired and at least 2 wells per population were used. Features of nuclear morphology, fluorescence intensity inter-channel co-localization, and texture features (Image moments, Haralick, Threshold Adjacency Statistics) were calculated using custom algorithms. A full list of the features used is available from the authors. Values for each cell were generated and exported to Microsoft Excel or MATLAB for further analysis. For Sall2, Olig2, Brn2, Sox2, Oct4, and GFAP immunostaining, images were captured on an IC200-KIC (Vala Sciences) using a ×20 objective. Between 3 and 8 fields per well were acquired and analyzed using Acapella 2.6 (PerkinElmer). For all nuclear markers, average intensities in nucleus or fold change compared to untreated cells are shown. Unless stated otherwise, at least 3 wells and a minimum of 300 cells for each condition were compared using the unpaired two-tailed t-test.

Data set [3] concerns GBM2 cells. Kind of data set: RNAseq and transcriptomic analysis. The note with it: for gene expression changes (GO terms) compared with those induced by serum or BMP4 / ranking by average Euclidean distance from serum- or Bmp4-treated cells (MIEL- and gene expression-based): GBM2, 3 days; for Euclidean distance (FPKM, all expressed genes) of treated cells to serum or Bmp4 treated cells: GBM2 TPCs; for ranking by average Euclidean distance from serum- or Bmp4-treated cells (MIEL- and gene expression-based): 8 candidate compounds. Format: cell-based, human. Here is the method:
RNAseq and transcriptomic analysis: Total RNA was isolated from GBM2 cells using the RNeasy Kit (Qiagen), 0.5 ug total RNA was used for isolation of mRNAs and library preparation. Library preparation and sequencing was conducted by the SBP genomics core (Sanford-Burnham NCI Cancer Center Support Grant P30 CA030199). PolyA RNA was isolated using the NEBNext® Poly(A) mRNA Magnetic Isolation Module and barcoded libraries were made using the NEBNext® Ultra II™ Directional RNA Library Prep Kit for Illumina® (NEB, Ipswich MA). Libraries were pooled and single end sequenced (1X75) on the Illumina NextSeq 500 using the High output V2 kit (Illumina). Read data was processed in BaseSpace. Reads were aligned to Homo sapiens genome (hg19) using STAR aligner with default settings. Differential transcript expression was determined using the Cufflinks Cuffdiff package. Go term enrichment analysis was conducted using PANTHER v11 using all genes identified as differentially expressed following either serum or Bmp4 treatment. For heat maps showing fold change in expression the FPKM values in each population were divided by the average FPKM values of untreated GBM2. To highlight differences in expression levels between serum and Bmp4 treated GBM2 cells the FPKM values in each sample were z-scored. Zscore=(FPKMObservation−FPKMAverage)/FPKMSD (FPKMObservation−FPKM value obtain through sequencing; FPKMAverage−average of all FPKM values in all samples for a certain gene; FPKMSD−standard deviation of FPKM values for a certain gene). Heat maps were generated using Microsoft Excel conditional formatting function.
Correlation of transcriptomic and image-based profiles: Euclidean distance between untreated, serum or Bmp4 treated GBM2 cells (triplicates for each) was calculated using either transcriptomic data (FPKM) or texture features. Pearson's correlation coefficient (R) was transformed to a t-value using the formula (t=R×SQRT(N−2)/SQRT(1−R2) where N is the number of samples, and R is Pearson correlation coefficient, and the p-value was calculated using Excel tdist(t) function. For compound prioritization, the Euclidean distance between compound treated and serum or Bmp4 treated GBM2 cells was calculated based on either transcriptomic data (FPKM) or image features. The average distance to both serum and Bmp4 treatments was normalized to the average distance of untreated cells to serum and Bmp4.
RNAseq and transcriptomic analysis: Total RNA was isolated from GBM2 cells using the RNeasy Kit (Qiagen), 0.25 μg total RNA was used to isolate mRNAs and for library preparation. Library preparation and sequencing were conducted by the SBP genomics core (Sanford-Burnham NCI Cancer Center Support Grant P30 CA030199). PolyA RNA was isolated using the NEBNext® Poly(A) mRNA Magnetic Isolation Module, and barcoded libraries were made using the NEBNext® Ultra II™ Directional RNA Library Prep Kit for Illumina® (NEB, Ipswich MA). Libraries were pooled and single-end sequenced (1×75) on the Illumina NextSeq 500 using the High-Output V2 kit (Illumina). Read data, processed in BaseSpace, were aligned to Homo sapiens genome (hg19) using STAR aligner with default settings. Differential transcript expression was determined using the Cufflinks Cuffdiff package. For heat maps showing fold change in expression, FPKM values in each HDACi-treated population were divided by the average FPKM values of DMSO-treated GBM2 and values shown as log 2 of the ratio. Go enrichment analysis was conducted using PANTHER v11 using all genes identified as differentially expressed following either serum or Bmp4 treatment. To highlight differences in expression levels between serum- and Bmp4-treated GBM2 cells, FPKM values in each sample were z-scored. Zscore=(FPKMObservation−FPKMAverage)/FPKMSD (FPKMObservation−FPKM value obtain through sequencing; FPKMAverage−average of all FPKM values in all samples for a certain gene; FPKMSD−standard deviation of FPKM values for a certain gene). […]

Data set [4] relates to TPCs. Kind of data set: Growth rate of treated glioblastoma cells. Particulars: GBM2, 3 days, compared with serum/Bmp4 treatment.

“Also recorded” adds a separate entry of the source.

Take `C[C@]12CC[C@@H]3c4ccc(O)cc4CC[C@H]3[C@@H]1CC[C@@H]2O` [17 beta-estradiol]: the “outcome in high throughput screening using primary mouse hepatocytes (miBioAge)” value (“outcome in high throughput screening” below) in data set [1] is given as “positive controls”.
On to `C[C@]12CC[C@H](O)C[C@H]1CC[C@@H]1[C@@H]2CC[C@]2(C)[C@@H](C3=CC(=O)OC3)CC[C@]12O` [Digitoxigenin], for which, in data set [2], the Sox2 expression entry is listed as “reduce”; the “expression of the core transcription factors” value is “downregulate”; the “Sall2 and Brn2 expression” value is recorded as “significant reduction”. In data set [3], the “gene expression changes (GO terms) compared with those induced by serum or BMP4” value (from here on “gene expression changes (GO terms)”) is recorded as “markedly different” and the “Euclidean distance (FPKM, all expressed genes) of treated cells to serum or Bmp4 treated cells” value is reported as “Neither Digitoxigenin nor Digoxin reduced the distance”.
For `C[C@H]1O[C@@H](O[C@H]2[C@@H](O)C[C@H](O[C@H]3[C@@H](O)C[C@H](O[C@H]4CC[C@@]5(C)[C@H](CC[C@@H]6[C@@H]5C[C@@H](O)[C@]5(C)[C@@H](C7=CC(=O)OC7)CC[C@]65O)C4)O[C@@H]3C)O[C@@H]2C)C[C@H](O)[C@@H]1O` [Digoxin], in data set [2], the Sox2 expression result is given as “reduced”; the “expression of the core transcription factors” value is reported as “downregulate”; the “Sall2 and Brn2 expression” value is recorded as “significant reduction”. Besides, in data set [3], the “gene expression changes (GO terms)” value was “markedly different”; the “ranking by average Euclidean distance from serum- or Bmp4-treated cells (MIEL- and gene expression-based)” value is recorded as “lowest-ranking candidate”; the “Euclidean distance (FPKM, all expressed genes) of treated cells to serum or Bmp4 treated cells” value is “Neither Digitoxigenin nor Digoxin reduced the distance”. Besides, the “gene expression changes (GO terms)” value in data set [3] (listed as digoxin) is on record as “rather different”. For the same compound, the “growth rate of drug-treated cells” value in data set [4] is “stronger reduction; also recorded: cytostatic”. The “growth rate of drug-treated cells” value in data set [4] (listed as digoxin) was “cytostatic”.
Regarding `COc1ncc(-c2ccc3nccc(-c4ccnnc4)c3c2)cc1NS(=O)(=O)c1ccc(F)cc1F` [GSK2126458], the “outcome in high throughput screening” value in data set [1] is given as “hits to be tested in animal models”.
Take `CC(C)n1nc(-c2ccc3oc(N)nc3c2)c2c(N)ncnc21` [INK128]: the “outcome in high throughput screening” value in data set [1] was “hits to be tested in animal models”.
Still for that read-out and setting: the result for `CN(C)C(=N)N=C(N)N` [Metformin] reads “positive controls”.
In the case of `CC(Cc1ccc(O)c(O)c1)C(C)Cc1ccc(O)c(O)c1` (centres unmarked) [NDGA], in data set [1], the “outcome in high throughput screening” value is recorded as “positive controls” and the “shift of epigenetic signature of old cells towards that of young cells” value is reported as “Statistically significant dose-dependent shifts”.
Turning to `Cn1c(=O)n(-c2ccc(C(C)(C)C#N)cc2)c2c3cc(-c4cnc5ccccc5c4)ccc3ncc21` [NVP-BEZ235], the “outcome in high throughput screening” value in data set [1] is reported as “hits to be tested in animal models”.
The same measure, in the same setting: the result for `NC(=O)c1ccc[n+]([C@@H]2O[C@H](COP(=O)([O-])O)[C@@H](O)[C@H]2O)c1` [Nicotiamide mononucleotide, Nicotinamide mononucleotide] reads “inactive molecules”.
Still for that read-out and setting: the result for `O=C(O)C(Cc1c[nH]c2ccccc12)N1C(=O)c2ccccc2C1=O` (centres unmarked) [RG108] reads “inactive molecules”.
For the compound `CC(=O)Oc1ccccc1C(=O)O` [aspirin], the “shift of epigenetic signature of old cells towards that of young cells” value in data set [1] is “Statistically significant dose-dependent shifts”.
Take `COc1cc([C@@H]2c3cc4c(cc3[C@@H](O[C@@H]3O[C@@H]5CO[C@@H](C)O[C@H]5[C@H](O)[C@H]3O)[C@H]3COC(=O)[C@H]23)OCO4)cc(OC)c1O` [etoposide]: the “ranking by average Euclidean distance from serum- or Bmp4-treated cells (MIEL- and gene expression-based)” value in data set [3] is on record as “top candidate”.
With `NC(=O)c1ccc[n+]([C@@H]2O[C@H](CO)[C@@H](O)[C@H]2O)c1` [nicotinamide riboside], the “outcome in high throughput screening” value in data set [1] was “inactive molecules”.
